Where two headings read alike, the source gives them in different places.

This note sets out measurements from article PMC7394379, “Structure-guided screening strategy combining surface plasmon resonance with nuclear magnetic resonance for identification of small-molecule Argonaute 2 inhibitors” (PLoS ONE, 2020).

The target in assay [1] is T1, AGO2 MID domain (Homo sapiens, UniProt Q9UKV8).
T1 construct: MID domain Gln432-Leu578 (147 residues); pE-SUMOpro-3 His-SUMO fusion, tag removed by SUMO protease 2; E. coli BL21(DE3); 15N-labelled for NMR
Nature of the assay: SPR inhibition, immobilised biotin-PEG-UMP versus AGO2 MID domain. Format: binding. The following applies: read-out: % inhibition at 500 μmol/L.

The target of assay [2] is T1, AGO2 MID domain. Described as above. Format: binding.
For assay [3], the target named is T1, AGO2 MID domain. Briefly: 1H-15N HSQC NMR chemical shift perturbation. As to conditions: 20 °C, pH 6.70, 25 mM sodium phosphate, 150 mM NaCl, 2 mM TCEP; two binding sites suggested, one overlapping AMP.
Assay [4] has as its target T1, AGO2 MID domain. Nature of the assay: SPR inhibition, immobilised biotin-PEG-UMP versus AGO2 MID domain. The assay is classed as binding. The following applies: HBS-EP+ pH 7.4, 2 mM DTT, 5% DMSO; competition at the 5'-terminal nucleotide site.
Where [5] appears, read: HBS-EP+ pH 7.4, 2 mM DTT, 5% DMSO, competition at the 5'-terminal nucleotide site.

`Nc1ncnc2c1ncn2[C@@H]1O[C@H](CO)[C@@H](O)[C@H]1O` [adenosine]: the inhibition at 500 µM at AGO2 MID domain [1] is below 10%.

Take `Nc1nc2c(ncn2[C@@H]2O[C@H](COP(=O)(O)O)[C@@H](O)[C@H]2O)c(=O)[nH]1` [GMP]: at AGO2 MID domain [2] (setting [5]), the IC50 result is “AMP and UMP showed a stronger inhibition than CMP and GMP”.

As to `O=c1ccn([C@@H]2O[C@H](COP(=O)(O)O)[C@@H](O)[C@H]2O)c(=O)[nH]1` [UMP], the half-inhibitory concentration (IC50) result at AGO2 MID domain [2] (setting [5]) is “AMP and UMP showed a stronger inhibition than CMP and GMP”.

On to `COc1ccc(-c2nn(CCC(=O)O)cc2C=C2SC(=S)NC2=O)cc1` [Z56862757], for which, on AGO2 MID domain [3], the “1H-15N HSQC NMR chemical shift perturbation” value is on record as “NMR analysis suggests two Z56862757 binding sites, only one site could overlap with AMP”. Moreover, the IC30 entry on AGO2 MID domain [4] was “Three of the hit compounds showed stronger inhibition than BCI-137 in the SPR analysis”.

For `COc1cc(C=C2SC(=S)N(C(CCC(=O)O)C(=O)O)C2=O)cc(Cl)c1O` (stereo not drawn) [UZI/1999527], the IC30 result on AGO2 MID domain [4] is recorded as “Three of the hit compounds showed stronger inhibition than BCI-137 in the SPR analysis”.

As for `Nc1ncnc2c1ncn2[C@@H]1O[C@H](COP(=O)(O)O)[C@@H](O)[C@H]1O` [AMP], the IC50 at AGO2 MID domain [2] (read-out: IC50) is around 200 µM.

Turning to `Cc1cccc(C(Nc2ccc3c(c2)OC(F)(F)O3)P(=O)(O)O)c1` (stereo not drawn) [Z317095268], the IC30 result on AGO2 MID domain [4] was “Three of the hit compounds showed stronger inhibition than BCI-137 in the SPR analysis”.

For `Nc1ccn([C@@H]2O[C@H](COP(=O)(O)O)[C@@H](O)[C@H]2O)c(=O)n1` [CMP], the IC50 result on AGO2 MID domain [2] (setting [5]) is “AMP and UMP showed a stronger inhibition than CMP and GMP”.

Broadly, the IC50 is the concentration that gives 50% inhibition.
